Paper PMC11382352 (Drug development research, 2019)
Values after ≈ are worked out from the molar mass of the structure shown. Read-outs that look alike come from different tables or passages of the source.

Test system: Mycobacterium tuberculosis H37Rv
Experiment: Microtiter dilution MIC assay in GAST-Fe and 7H9-based media
Format: cell-based
Conditions: for MIC (Gast/Fe) Week 2: GAST-Fe medium pH 6.6, read after week 2; for MIC (Gast/Fe) Week 1: GAST-Fe medium pH 6.6, read after week 1; for MIC: Mycobacterium tuberculosis, H37RV

Row | SMILES | MIC (Gast/Fe) Week 2 [µM] | further results
1 | c1ccc(NCc2ccc(Oc3ccccn3)cc2)cc1 [Compound 2a, N-(4-(pyridin-2-yloxy)benzyl) aniline] | 37 (≈ 10.2 µg/mL) | 
2 | COc1cccc(NCc2ccc(Oc3ccccn3)cc2)c1 [Compound 2c, 3-methoxy-N-(4-(pyridin-2-yloxy)benzyl) aniline] | 37 (≈ 11.3 µg/mL) | 
3 | Cc1ccc(NCc2ccc(Oc3ccccn3)cc2)cc1 [Compound 2d, 4-methyl-N-(4-(pyridin-2-yloxy)benzyl) aniline] |  | MIC (Gast/Fe) Week 1: 22 µM (≈ 6.39 µg/mL)
4 | Clc1ccc(NCc2ccc(Oc3ccccn3)cc2)cc1 [Compound 2g, 4-chloro-N-(4-(pyridin-2-yloxy)benzyl) aniline] | 40 (≈ 12.4 µg/mL) | 
5 | Clc1cccc(NCc2ccc(Oc3ccccn3)cc2)c1 [Compound 2h, 3-chloro-N-(4-(pyridin-2-yloxy)benzyl) aniline] | 40 (≈ 12.4 µg/mL) | 
6 | Clc1ccccc1NCc1ccc(Oc2ccccn2)cc1 [Compound 2i, 2-chloro-N-(4-(pyridin-2-yloxy)benzyl) aniline] | 20 (≈ 6.22 µg/mL) | MIC (Gast/Fe) Week 1: 20 µM (≈ 6.22 µg/mL)
7 | Fc1ccc(NCc2ccc(Oc3ccccn3)cc2)cc1 [Compound 2j, 4-fluoro-N-(4-(pyridin-2-yloxy)benzyl) aniline] | 25 (≈ 7.36 µg/mL) | 
8 | Brc1cccc(NCc2ccc(Oc3ccccn3)cc2)c1 [Compound 2m, 3-bromo-N-(4-(pyridin-2-yloxy)benzyl) aniline] | 35 (≈ 12.4 µg/mL) | 
9 | Oc1cc(Cl)ccc1Oc1ccc(Cl)cc1Cl [Triclosan, 2,4,4׳- trichloro- 2׳- hydroxy diphenyl ether, reference compound] |  | MIC (pH 6.6, read-out: MIC (Gast/Fe) Week 1): 43 µM (≈ 12.5 µg/mL); MIC (pH 6.6, read-out: MIC (Gast/Fe) Week 2): 43 µM (≈ 12.5 µg/mL); MIC (read-out: MIC (7H9/ADC/Tween) Week 1): 22 µM (≈ 6.37 µg/mL); MIC (read-out: MIC (7H9/ADC/Tween) Week 2): 43 µM (≈ 12.5 µg/mL)
